According to patent publication US5279956A, “Activated protein C polypeptides and anti-peptide antibodies, diagnostic methods and systems for inhibiting activated protein C” (The Scripps Research Institute, priority 1991, dated 1994):
No end group written: not given here.

What was measured:
APC = target: T1, APC (Homo sapiens, UniProt P04070); experiment: APC anticoagulant activity, APTT and Xa-1-stage coagulation assays (mean or both); type: biochemical; details: measured at 36 μM peptide
T1 construct: begins at amino acid residue position 158 and ends at 419; The light chain is 155 amino acid residues in length; tissue Factor IX concentrate from Immuno AG, Vienna; thrombin from Enzyme Research Laboratories
T1 sequence (P04070 212-461): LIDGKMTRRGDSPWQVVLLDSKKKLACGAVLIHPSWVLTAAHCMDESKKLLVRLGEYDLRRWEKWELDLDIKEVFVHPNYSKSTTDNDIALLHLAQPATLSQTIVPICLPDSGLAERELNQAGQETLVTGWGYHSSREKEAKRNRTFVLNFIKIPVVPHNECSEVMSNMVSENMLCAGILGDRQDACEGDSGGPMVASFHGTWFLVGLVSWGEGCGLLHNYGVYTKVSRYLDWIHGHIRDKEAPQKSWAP
T1 sequence (P04070 43-197): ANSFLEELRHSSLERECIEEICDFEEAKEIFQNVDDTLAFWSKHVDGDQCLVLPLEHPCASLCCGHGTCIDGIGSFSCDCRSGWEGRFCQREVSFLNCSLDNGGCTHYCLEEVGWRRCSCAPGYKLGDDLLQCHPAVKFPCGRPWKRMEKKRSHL
Procedure: The effect of the synthetic peptides on APC anticoagulant activity were determined using the APTT assay in the presence of either normal citrate anticoagulated plasma (NHP) or protein S depleted plasma (PSDP). The assays were performed essentially as described. See Marlar et al., Blood, 59:1067-1072 […]; Suzuki et al., J. Biol. Chem., 258:163-168 (1983); Gruber et al., Blood, 73:639-642 (1989); Ohlin et al., Biochem., 29:644-651 (1990). NHP was purchased from George King Bio-Medical, Inc. (Overland Park, Kans.). PSDP was prepared from a normal human citrate-anticoagulated plasma pool from ten healthy donors. Protein S was immunodepleted from the NHP by immunoaffinity chromatography of NHP over an anti-protein S antibody column to form PSDP. The anti-protein S antibody column was prepared by coupling 100 mg of a monoclonal, high-affinity, calcium-independent anti-PS antibody, designated S7, to 30 ml of CNBr-activated Sepharose 4B (Pharmacia) as described in Example 2c1).
For the APTT assay, APC was prepared as described in Example 2c2). […] The concentration of the APC used in the assay was initially optimized with respect to the sensitivity of the assay towards APC-induced prolongation of clotting time compared to clotting time without APC.
Once the optimal concentration of APC was determined, peptides from Table 2 were then separately admixed for a final concentration of 500 μM with 10 nM APC in 100 μl of TBS-BSA at pH 7.4 to form peptide-APC admixtures. The resulting admixtures were maintained for seven minutes at 37° C. Separate aliquots of peptides maintained under the same conditions in the absence of APC served as controls for the inhibitory effect of synthetic peptides on APC anticoagulant activity. After the maintenance period, 100 μl of NHP and 100 μl APTT-reagent Thrombosil (Ortho Diagnostics, Raritan, N.J.) were admixed into each peptide admixture and maintained for 200 seconds at 37° C. to form a pre-coagulation admixture. In some experiments, PSDP was used in the place of NHP to determine the effect of Protein S on the assay system. Coagulation was then initiated by the admixture of 100 μl of 30 mM CaCl2 in TBS prewarmed to 37° C. to each of the pre-coagulation admixtures. The time for clot formation was measured by an Electra 700 Automatic Coagulation Timer (Medical Laboratory Automation, Inc., Mount Vernon, N.Y.). Each peptide's effect was determined in duplicate.
The synthetic peptides listed in Table 4 are presented in the same order as listed in Table 2, i.e., are reproduced from Table 2. […] For peptides at a concentration of 500 μM that inhibited at least 50% of APC anticoagulant activity, analysis of dose-response was subsequently conducted. The column in Table 4 labeled "Inhibition of APC" represents the inhibition of APC anticoagulant activity measured with 500 μM peptide.
For testing the inhibition of the synthetic peptides on APC activity described above, Xa-1-stage coagulation assays were also performed as described. See Seegers et al., Thrombosis Res., 13:233-243 (1978); Marlar et al., supra; and Walker et al., J. Biol. Chem. 265:1484-1489 (1990).

[1] = Solubility of peptide in buffer solutions; type: physicochemical; details: concentrations higher than 36 μM
Procedure: Purified peptides were separately resuspended in distilled water to form a dissolved peptide solution at a final concentration of 2.5 mM. Subsequently, […] containing 0.05M Tris hydroxymethyl aminomethanehydrochloride (Tris-HCl) at pH 7.4 (TBS-Az) 0.1M sodium chloride (NaCl), 0.02% sodium azide (NaN3). The pH of the solution was checked, and if necessary, adjusted to pH 7.4 with titrated amounts of 1M Tris-base. For peptides that appeared to be not completely soluble at 2.5 mM in TBS-Az, the partially dissolved peptide suspensions separately were centrifuged at 13,000×g to pellet the insoluble material. The molar concentrations in the resultant individual supernatants were estimated from the absorbance at 280 nm and 257 nm, respectively, for peptide solutions containing aromatic amino acids using a molar extinction coefficient of 5,600 M^-1 cm^-1 for tryptophan and 1,400 M^-1 cm^-1 for tyrosine at 280 nm, using a molar extinction coefficient of 200 M^-1 cm^-1 for phenylalanine at 257 nm. Peptides without aromatic amino acids and poor solubility in aqueous solutions were not evaluated in this invention.

anti-(390-404) antibody [2] = experiment: Cross-competition ELISA: anti-(390-404) antibody binding to immobilized PC with fluid-phase competitors; design: species or system rabbit; details: fluid-phase competitor
Procedure: FIG. 1 illustrates anti-(390-404) antibody binding to immobilized Protein C (PC) in the presence of fluid-phase PC, peptide-(390-404), -(404-390) and -K395A-(390-404). […] Before admixing 2 μg/ml anti-(390-404) antibody to PC-coated wells, the anti-(390-404) antibody was admixed with 0 to 200 μg/ml of either PC, 0 to 1000 μM peptide (-390-404), 0 to 1000 μM peptide-(404-390), or 0-200 μM peptide-K395A-(390-404) for 30 minutes at 37° C. Following biotinylated-goat-anti-rabbit-IgG and streptavidin-alkaline-phosphatase immunoreactions as described in Example 2c, bound anti-(390-404) antibody was detected by addition of 5 milligrams/milliliter (mg/ml) p-nitrophenylphosphate in 0.1M diethanolamine at pH 9.6 followed by measuring of the change in absorbance at 405 nm over time. The amount of anti-(390-404) specifically bound to PC coated wells in the absence of any competing protein was defined as 100%. […]
The specificity of anti-(390-404) antibody for peptide-(390-404) and PC was confirmed by cross-competition binding experiments. […] Bound anti-(390-404) antibody to immobilized PC in the presence of competitors was detected as described in Example 2c.

anti-(390-404) antibody [3] = experiment: Solid-phase ELISA: binding of anti-(390-404) antibody to immobilized peptides and PC; design: species or system rabbit
Procedure: To determine the immunospecificity of the rabbit antisera obtained in Example 2b, ELISA assays were performed. Briefly, 50 μl of either 50 μM peptide-(390-404) prepared in Example 1 or 10 μg/ml of PC or APC prepared in Example 2c in a buffer consisting of 0.05M sodium carbonate (Na2 CO3) and 0.02% NaN3 at pH 9.0 were admixed into the wells of microtiter plates. The plates were maintained at 37° C. for one hour to permit the antigens to become operatively affixed to the well walls. After washing the antigen-coated wells with TBS, the wells were blocked with 250 μl/well of 10% bovine serum albumin (BSA) (Sigma) in TBS for one hour at 22° C. The blocking solution was then removed and the wells were subsequently washed five times with 250 μl/well of maintenance buffer (0.05M Tris-HCl, 0.1M NaCl, 0.02% NaN3, 1 mg/ml BSA, 5 mM CaCl2, 0.01% Tween 20 at pH 7.4). Fifty μl of rabbit non-immune or specific antiserum serially diluted in maintenance buffer was then admixed to the washed wells and maintained for one hour at 37° C. to allow formation of a solid liquid phase immunoreaction products. The wells were then washed three times with maintenance buffer followed by admixture of 50 μl of 2.0 μg/ml of secondary antibody (polyclonal biotinylated goat-anti-rabbit-IgG) (Pierce Biochemicals) diluted in maintenance buffer to each well for the detection of immunoreactant products. The plates were maintained for 1 hour at 37° C. after which time the secondary antibody solution was removed. After washing the wells as described above, 50 μl of 2.0 μg/ml streptavidin-alkaline-phosphatase (Pierce Biochemicals) in maintenance buffer was admixed into each well and maintained for 30 minutes at 37° C. Detection of specific immunoreaction products was obtained by admixture of 150 μl/well of 5 mg/ml p-nitrophenylphosphate (PNPP) (Pierce Biochemicals) in 0.1M diethanolamine and 0.02% NaN3 at pH 9.6 followed by measurement of the change in absorbance at 405 nm over time using the EL312 Microplate Bio-Kinetics Reader and the KinetiCalc Software Program (Biotek Instruments, Inc., Vt.). Non-specific binding was considered as the measured absorbance in 10% BSA blocked wells which served as negative controls without the preceding coating of a specific protein or peptide. Under the described conditions, non-specific binding never exceeded more than 5% of the specific binding.
The specificity of immunoaffinity purified anti-(390-404) antibody towards peptide-(390-404) and PC was evaluated by measuring the binding in solid-phase ELISA of the antibody to immobilized peptides including -(384-398), -(390-404), -(396-410), -(404-390), and -K395A-(390-404) listed in Table 1 with their corresponding SEQ ID NO, and to PC. […]

Substance | inhibition at 36 µM (APC) [%] | solubility in buffer solutions [1] | competition with binding of anti-(390-404) antibody to immobilized PC (anti-(390-404) antibody [2]) | IC50 (anti-(390-404) antibody [2]; 2 μg/ml antibody, 10 μg/ml PC coated, read-out: Half-maximal inhibition of anti-(390-404) antibody binding to immobilized PC) [nM] | binding of anti-(390-404) antibody to immobilized peptide or PC (anti-(390-404) antibody [3]; solid-phase ELISA) | Anti-(390-404) (Absorbance/20 min.) (anti-(390-404) antibody [3]; wells coated with 50 μM peptide or 10 μg/ml PC, 2 μg/ml anti-(390-404) antibody, mean of duplicates)
YGVYTAVSRYLDWIH-NH2 [peptide-K395A-(390-404), YGVYTAVSRYLDWIH] | 23 | limitations of solubility in buffer solutions |  |  |  | 
Protein C: human Protein C zymogen immunoaffinity-purified from plasma factor IX concentrate |  |  | competed significantly | ~9.2 | Significant immunoreactivity | 249
